Residue numbers refer to the chain shown, from its start. In brackets after ≈: the same amount, converted by molar mass. Several values for one entry are separate records, joined by “and”; a condition that tells them apart may be missing. Identical values can stand only once. Like-named read-outs stand apart in the source and are kept apart here.
Experiments:
hFFA3 [1] = target: T1, hFFA3 (Homo sapiens, UniProt O14843); test: cell-based; conditions: for Emax: HEK293, read-out: cAMP Emax; for cAMP pEC50: hFFA3, compound alone, mean of ≥3 independent experiments ± standard error
T1 sequence (O14843 1-346): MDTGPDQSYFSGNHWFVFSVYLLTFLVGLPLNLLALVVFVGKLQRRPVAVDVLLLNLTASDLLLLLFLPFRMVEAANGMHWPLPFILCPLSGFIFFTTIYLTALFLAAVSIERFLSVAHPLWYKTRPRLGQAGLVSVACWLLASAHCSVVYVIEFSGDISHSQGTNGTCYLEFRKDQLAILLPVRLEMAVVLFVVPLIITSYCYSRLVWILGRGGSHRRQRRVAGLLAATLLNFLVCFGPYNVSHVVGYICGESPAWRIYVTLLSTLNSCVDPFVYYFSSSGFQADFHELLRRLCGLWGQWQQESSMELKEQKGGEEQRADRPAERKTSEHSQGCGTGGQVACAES
Experimental: (§1) The ligands were initially screened in a human FFA3-dependent [^35S]GTPγS binding assay as this assay reflects receptor-mediated activation of Gi/o proteins and is known to generally correlate well with ligand affinity.[30] Analogues of particular interest were tested further in a cAMP inhibition assay as this is an important downstream effect of Gi-activation. […] It is furthermore performed in whole cells, is more downstream, includes G protein signal amplification, and therefore better reflects a more natural ligand–receptor response.
HEK293 Flp-In T-Rex cells stably transfected with FFA3-eYFP receptors were incubated overnight with doxycycline to induce expression, then harvested, and cryopreserved. On the day of each experiment, cells were thawed and resuspended in stimulation buffer. Assays were carried out using a 384-well plate format with 3000 cells/well using the CisBio cAMP GS dynamic kit as per manufacturer’s protocol. Compounds were tested for the ability to inhibit 0.3 μM forskolin-induced cAMP production after co-incubation for 1 h. Reactions were measured using a PHERAstar FS plate reader (BMGLabtech, Aylesbury, UK).

hFFA3 Q131A = target: T2, hFFA3 Q131A (Homo sapiens, UniProt O14843, Q131A); test: Potency at FFA3 mutant Q131A; format: cell-based
T2 sequence (O14843 1-346 Q131A): T1 sequence (O14843 1-346) with Q131A
Experimental: (§2) The previously published compound 1 was not affected by mutation of either R185A or R258A in the orthosteric binding site, and the compounds were therefore believed to be allosteric modulators. […] After the publication of the FFA1 crystal structure in complex with an allosteric agonist located in the TM region close to the intracellular site,[32] a homology model of hFFA3 was constructed using Modeller. […] Thus, additional docking of (R)-1 in this site were performed to find poses where Q131, but not R126, show a central role in binding. […] The narrow binding cavity around the core scaffold is in agreement with the restrained SAR observed for this series and the furan moiety pointing out of the binding cavity might explain the flexibility in substituents at this site (Figure 3c,d). Although Q131A impacts the potency of (R)-1 with high significance, the magnitude of the effect is lower than what would be generally expected for the removal of a hydrogen bond interaction; thus, additional studies are required to confirm the proposed binding site.

hFFA3 E112A = target: T3, hFFA3 E112A (Homo sapiens, UniProt O14843, E112A); test: Potency at FFA3 mutant E112A; format: cell-based
T3 sequence (O14843 1-346 E112A): T1 sequence (O14843 1-346) with E112A
Experimental: as §2

hFFA3 R126A = target: T4, hFFA3 R126A (Homo sapiens, UniProt O14843, R126A); test: Potency at FFA3 mutant R126A; format: cell-based
T4 sequence (O14843 1-346 R126A): T1 sequence (O14843 1-346) with R126A
Experimental: as §2

hFFA3 [2] = target: T1, hFFA3; test: biochemical; conditions: for GTPγS pEC50: hFFA3, mean of ≥3 independent experiments ± standard error
Experimental: as §1
Membranes were isolated from Flp-In T-REx HEK293 cells treated with 100 ng/mL doxycycline to induce receptor expression. Cells were washed with ice-cold phosphate-buffered saline and removed from dishes by scraping before being centrifuged for 5 min at 4 °C, 3000 rpm. Pellets were resuspended in TE buffer (75 mM Tris–HCl, 5 mM EDTA; pH 7.5) with the addition of a protease inhibitor mixture (Roche Applied Science, West Sussex, UK). This was then homogenized with a 5 mL hand-held homogenizer and subsequently centrifuged at 1500 rpm for 5 min at 4 °C, from which the supernatant was collected and further centrifuged at 50 000 rpm for 30 min at 4 °C. The resulting pellet was resuspended in TE buffer, and the protein content was measured using a BCA protein assay kit (Pierce, Fisher Scientific, Loughborough, UK).
Reactions were initiated with the addition of [^35S]GTPγS at 50 nCi per tube; reactions were terminated after 1 h of incubation at 25 °C by rapid filtration through GF/C glass filters using a 24-well Brandel cell harvester (Alpha Biotech, Glasgow, UK). Unbound radioligand was removed from filters by washing three times with ice-cold wash buffer (50 mM Tris–HCl, pH 7.4, and 10 mM MgCl2), and [^35S]GTPγS binding was determined by liquid scintillation spectrometry.

hFFA3 [3] = target: T1, hFFA3; set-up: expressed in transfected cells; host or cells: Flp-In T-REx HEK293 (membranes); method as in PMID 24870406; conditions: previously characterized; cited from earlier work
[4] = Kinetic aqueous solubility in PBS pH 7.4; format: physicochemical; conditions: for solubility: pH 7.4, read-out: Aq. solub.
Experimental: (§3) Solubility and log D7.4 measurements were performed in accordance to the previously published procedures.[35]

log D7.4 measurement = format: physicochemical; conditions: pH 7.4; read-out: logD7.4
Experimental: as §3

[5] = Stability toward mouse liver microsomes; conditions: remaining after 40 min incubation with MLMs
Experimental: The study was performed by Bienta (www.bienta.net). Mouse hepatic microsomes were isolated from pooled and perfused livers of male BALB/c mice (n = 50). Isolation was performed according to the standard protocol.[36]
Microsomal incubations were carried out in 96-well plates in 5 aliquots of 40 μL each (one for each time point). Liver microsomal incubation medium comprised PBS (100 mM, pH 7.4), MgCl2 (3.3 mM), NADPH (3 mM), glucose-6-phosphate (5.3 mM), and glucose-6-phosphate dehydrogenase (0.67 units/mL) with 0.42 mg of liver microsomal protein per ml. In the control reactions, the NADPH-cofactor system was substituted with PBS. […] Each reaction was performed in duplicates. Five time points over 40 min were analyzed. The reactions were stopped by adding 12 volumes of 90% acetonitrile–water to incubation aliquots, followed by protein sedimentation by centrifuging at 5500 rpm for 3 min. […]. Supernatants were analyzed using HPLC-MS/MS on an API 3000 PE instrument.

[6] = efficacy relative to maximal response of propionate

| Compound | Emax (hFFA3 [1]) [%] | cAMP pEC50 (hFFA3 [1]) | solubility ([4]; phosphate buffered saline) [µM] | MLM (%) remaining [5] | logD at 24 h (log D7.4 measurement) | further results |
| --- | --- | --- | --- | --- | --- | --- |
| CC1=C(C(=O)Nc2ccccc2C)[C@H](c2ccco2)C2=C(CCCC2=O)N1 [(R)-1] | – | – | – | – | – | EC50 (hFFA3 [1]): 295 nM; reduction of potency by mutation Q131A (hFFA3 Q131A; p < 0.001): > 3 fold; effect of mutation E112A on potency (hFFA3 E112A): did not affect; effect of mutation R126A on potency (hFFA3 R126A): did not affect |
| CC1=C(C(=O)Nc2ccccc2C)C(c2ccccc2Br)C2=C(CCCC2=O)N1 (stereo not drawn) [Compound 5] | – | – | – | – | – | GTPγS pEC50 (hFFA3 [2]): nr^e; activity alone and with propionate (hFFA3 [3]): inactive alone but to act as a PAM of propionate |
| CCCC1C(C(=O)Nc2ccccc2C)=C(C)NC2=C1C(=O)CCC2 (stereo not drawn) [Compound 35, 2-Methyl-5-oxo-4-propyl-N-(o-tolyl)-1,4,5,6,7,8-hexahydroquinoline-3-carboxamide] | 101 | 5.92 ± 0.01 | 199 (≈ 67.4 µg/mL) | 23% | – | PAM pEC50 (hFFA3 [1]; cAMP assay in the presence of 1 μM propionate): 6.16 ± 0.10; logD (log D7.4 measurement): 2.64 |
| CC1=C(C(=O)Nc2cc(Cl)ccc2Cl)C(c2nccs2)C2=C(CCCC2=O)N1 (stereo not drawn) [Compound 47, N-(2,5-Dichlorophenyl)-2-methyl-5-oxo-4-(thiazol-2-yl)-1,4,5,6,7,8-hexahydroquinoline-3-carboxamide] | – | – | 2 (≈ 0.869 µg/mL) | 2% | 3.39 | solubility [4]: 1 µM (≈ 0.434 µg/mL) |
| CC1=C(C(=O)Nc2cc(Cl)ccc2Cl)C(c2cocn2)C2=C(CCCC2=O)N1 (stereo not drawn) [Compound 50, N-(2,5-Dichlorophenyl)-2-methyl-4-(oxazol-4-yl)-5-oxo-1,4,5,6,7,8-hexahydroquinoline-3-carboxamide] | 97 | 5.78 ± 0.03 | 62 (≈ 25.9 µg/mL) | – | 2.84 | increase of solubility relative to 16 ([4]; kinetic solubility): > 10 fold |
| CC1=C(C(=O)Nc2cc(Cl)ccc2Cl)C(c2ncco2)C2=C(CCCC2=O)N1 (stereo not drawn) [Compound 51, N-(2,5-Dichlorophenyl)-2-methyl-4-(oxazol-2-yl)-5-oxo-1,4,5,6,7,8-hexahydroquinoline-3-carboxamide] | 95 | 6.72 ± 0.05 | 1 (≈ 0.418 µg/mL) | 12% | 2.59 | – |
| CCCC1C(C(=O)Nc2ccccc2Cl)=C(C)NC2=C1C(=O)CCC2 (stereo not drawn) [Compound 58, N-(2-Chlorophenyl)-2-methyl-5-oxo-4-propyl-1,4,5,6,7,8-hexahydroquinoline-3-carboxamide] | 105 | 6.06 ± 0.05 | 169 (≈ 60.6 µg/mL) | – | 3.22 | increase of solubility compared to 57 ([4]; kinetic solubility): 4–5 fold |
| CCCC1C(C(=O)Nc2cccc(Cl)c2)=C(C)NC2=C1C(=O)CCC2 (stereo not drawn) [Compound 59, N-(3-Chlorophenyl)-2-methyl-5-oxo-4-propyl-1,4,5,6,7,8-hexahydroquinoline-3-carboxamide] | 105 | 5.97 ± 0.05 | 137 (≈ 49.2 µg/mL) | – | 3.77 | increase of solubility compared to 57 ([4]; kinetic solubility): 4–5 fold |
| CCCC1C(C(=O)Nc2cc(C)ccc2Cl)=C(C)NC2=C1C(=O)CCC2 (stereo not drawn) [Compound 60, N-(2-Chloro-5-methylphenyl)-2-methyl-5-oxo-4-propyl-1,4,5,6,7,8-hexahydroquinoline-3-carboxamide] | 103 | 6.19 ± 0.10 | 145 (≈ 54.1 µg/mL) | – | 3.57 | – |
| CCCC1C(C(=O)Nc2cc(OC)ccc2Cl)=C(C)NC2=C1C(=O)CCC2 (stereo not drawn) [Compound 61, N-(2-Chloro-5-methoxyphenyl)-2-methyl-5-oxo-4-propyl-1,4,5,6,7,8-hexahydroquinoline-3-carboxamide] | 96 | 5.96 ± 0.08 | 157 (≈ 61.1 µg/mL) | – | 3.07 | – |
| CC1=C(C(=O)Nc2cc(Cl)ccc2Cl)C(C2CC2)C2=C(CCCC2=O)N1 (stereo not drawn) [Compound 62, 4-Cyclopropyl-N-(2,5-dichlorophenyl)-2-methyl-5-oxo-1,4,5,6,7,8-hexahydroquinoline-3-carboxamide] | – | – | 5 (≈ 1.96 µg/mL) | 1−2% and 1% | 3.73 | – |
| propionate [Compound C3, reference compound] | – | 4.93 ± 0.10 | – | – | – | GTPγS Emax (hFFA3 [2]; [6]): 100; GTPγS pEC50 (hFFA3 [2]): 4.97 ± 0.08; cAMP Emax (hFFA3 [1]; [6]): 100; effect of mutation Q131A on potency (hFFA3 Q131A): did not affect; effect of mutation E112A on potency (hFFA3 E112A): did not affect; effect of mutation R126A on potency (hFFA3 R126A): did not affect |

— article PMC7307922 (Journal of Medicinal Chemistry, 2020)
